Assay results published in patent US4605615A, “L-glutamic acid oxidase (H2 O2 -generating), its production and analytical method therefor” (priority 1982, dated 1986).
Where two headings read alike, the source gives them in different places.

Assays:
[1] = tested on: A7700 enzyme; assay: Substrate specificity: relative activity on various substrates; format: biochemical, Streptomyces sp. A7700
Procedure: (§1) The above mixture (3.0 ml) was introduced into a quartz cell at 37° C., to which was immediately added and mixed the enzyme solution (50 μl), in a constant temperature (37° C.) cell-holder of a spectrophotometer. Then the mixture was incubated for exactly 5 minutes after 2 minutes of mixing with the enzyme solution, and the variation of absorption (optical density ΔA545) at 545 nm is measured.
(§2) The activity of the enzyme is calculated by the following equation: [formula] 2. Substrate specificity:
(§3) The relative activities (%) of enzyme L-glutamic acid oxidases produced by Streptomyces sp. A7700 (hereinafter designated as A7700 enzyme) and by Streptomyces sp. A8063 (hereinafter designated as A8063 enzyme), respectively, on various substrates as compared with L-glutamic acid, are measured.

[2] = tested on: A8063 enzyme; assay: as above; format: biochemical, Streptomyces sp. A8063
Procedure: as §1, §2, §3

[3] = tested on: A8063 enzyme; assay: Effect of metal ions on enzyme activity; format: biochemical, Streptomyces sp. A8063; conditions: metalic salt 1.0 mM
Procedure: as §1, §2
(§4) The effect of metal ions is shown in Table 5, in which ions other than Cu^++ show no effect on the enzymes.

[4] = tested on: A7700 enzyme; assay: Effect of metal ions on enzyme activity; format: biochemical, Streptomyces sp. A7700; conditions: metalic salt 1.0 mM
Procedure: as §1, §2, §4

[5] = tested on: A7700 enzyme; assay: Effect of surface active agents and other substances on enzyme activity; format: biochemical, Streptomyces sp. A7700
Procedure: as §1
(§5) The activity of the enzyme is calculated by the following equation: [formula] 2.

[6] = tested on: A8063 enzyme; assay: as above; format: biochemical, Streptomyces sp. A8063
Procedure: as §1, §5

[7] = tested on: A7700 enzyme; conditions: read-out: Km value; A7700 enzyme against L-glutamic acid
[8] = tested on: A8063 enzyme; conditions: read-out: Km value; A8063 enzyme against L-glutamic acid

For N[C@H](CCC(=O)O)C(=O)O [D-glutamic acid], the “Relative activity (%) on substrate as compared with L-glutamic acid” value (“Relative activity (%) on substrate” for short) [1] was 0% and the “Relative activity (%) on substrate” value [2] was 0%.

[Cl][Fe]([Cl])[Cl] [FeCl3] was tested, and the “Relative activity (%)” value [3] was 103.0% and the “Relative activity (%)” value [4] was 109.2%.

For CC[C@H](C)[C@H](N)C(=O)O [L-isoleucine], the “Relative activity (%) on substrate” value [1] was 0% and the “Relative activity (%) on substrate” value [2] was 0%.

CCCCCCCCCCCCOS(=O)(=O)O [SDS] was tested, and the “Relative activity (%)” value ([5]; A7700, additive 0.1%) was 106.3% and the “Relative activity (%)” value ([6]; A8063, additive 0.1%) was 93.1%.

For NO [hydroxylamine], the “Relative activity (%) on substrate” value [1] was 0% and the “Relative activity (%) on substrate” value [2] was 0%.

In the case of [Cl][Mn][Cl] [MnCl2], the “Relative activity (%)” value [3] was 105.7% and the “Relative activity (%)” value [4] was 108.6%.

For NCCc1ccc(O)cc1 [tyramine], the “Relative activity (%) on substrate” value [1] was 0% and the “Relative activity (%) on substrate” value [2] was 0%.

With [Cl-].[Cl-].[Mg+2] [MgCl2] the “Relative activity (%)” value [3] was 103.4% and the “Relative activity (%)” value [4] was 102.5%.

With NCCCC[C@H](N)C(=O)O [L-lysine] the “Relative activity (%) on substrate” value [1] was 0% and the “Relative activity (%) on substrate” value [2] was 0%.

C[C@H](CCC(=O)O)[C@H]1CC[C@H]2[C@@H]3[C@H](O)C[C@@H]4C[C@H](O)CC[C@]4(C)[C@H]3C[C@H](O)[C@]12C [sodium cholate] was tested, and the “Relative activity (%)” value ([5]; A7700, additive 0.1%) was 104.2% and the “Relative activity (%)” value ([6]; A8063, additive 0.1%) was 100.0%.

With N=C(N)NCCC[C@H](N)C(=O)O [L-arginine] the “Relative activity (%) on substrate” value [1] was 0% and the “Relative activity (%) on substrate” value [2] was 0%.

[N-]=[N+]=[N-].[Na+] [NaN3] was tested, and the “Relative activity (%)” value ([5]; A7700, additive 10 mM) was 101.4%, the “Effect of additive on enzyme activity (in words)” value (shortened to “Effect of additive”) ([5]; A7700 enzyme) was “not inhibited” and the “Relative activity (%)” value ([6]; A8063, additive 10 mM) was 102.6%. For the same compound, the “Effect of additive” value ([6]; A8063 enzyme) was “not inhibited”.

For CC(C)[C@H](N)C(=O)O [L-valine], the “Relative activity (%) on substrate” value [1] was 0% and the “Relative activity (%) on substrate” value [2] was 0%.

[Cl-].[Cl-].[Co+2] [CoCl2] was tested, and the “Relative activity (%)” value [3] was 98.0% and the “Relative activity (%)” value [4] was 99.4%.

[Cl][Cu][Cl] [CuCl2] was tested, and the “Relative activity (%)” value [3] was 62.1% and the “Relative activity (%)” value [4] was 50.3%.

With C[C@H](N)C(=O)O [L-alanine] the “Relative activity (%) on substrate” value [1] was 0% and the “Relative activity (%) on substrate” value [2] was 0%.

For N[C@@H](Cc1ccccc1)C(=O)O [L-phenylalanine], the “Relative activity (%) on substrate” value [1] was 0% and the “Relative activity (%) on substrate” value [2] was 0%.

In the case of Cc1cc2nc3c(=O)[nH]c(=O)nc-3n(C[C@H](O)[C@H](O)[C@H](O)COP(=O)(O)O)c2cc1C [FMN], the “Relative activity (%)” value ([5]; A7700, additive 0.01 mM) was 88.9%, the “Effect of additive” value ([5]; A7700 enzyme) was “not affected” and the “Relative activity (%)” value ([6]; A8063, additive 0.01 mM) was 97.1%. For the same compound, the “Effect of additive” value ([6]; A8063 enzyme) was “not affected”.

CCCCCCCCCCCCCCCC[N+](C)(C)C [CTACl] was tested, and the “Relative activity (%)” value ([5]; A7700, additive 0.1%) was 98.6% and the “Relative activity (%)” value ([6]; A8063, additive 0.1%) was 94.2%.

With N[C@@H](CCC(=O)O)C(=O)O [L-glutamic acid] the “Activity of enzyme on substrate (in words)” value [1] was “specific activity”, the “Relative activity (%) on substrate” value [1] was 100% and the Km [7] was ~560 µM. The “Activity of enzyme on substrate (in words)” value [2] was “specific activity”, the “Relative activity (%) on substrate” value [2] was 100% and the Km [8] was ~1100 µM.

In the case of N[C@@H](Cc1c[nH]cn1)C(=O)O [L-histidine], the “Relative activity (%) on substrate” value [1] was 0% and the “Relative activity (%) on substrate” value [2] was 0%.

In the case of O=C(O)CN(CCN(CC(=O)O)CC(=O)O)CC(=O)O [EDTA], the “Effect of additive” value [5] was “lack of effect”, the “Relative activity (%)” value [5] was 93.8% and the “Effect of additive” value [6] was “lack of effect”. For the same compound, the “Relative activity (%)” value [6] was 100.7%.

For [Ca+2].[Cl-].[Cl-] [CaCl2], the “Relative activity (%)” value [3] was 103.0% and the “Relative activity (%)” value [4] was 98.8%.

For CCCCN [butylamine], the “Relative activity (%) on substrate” value [1] was 0% and the “Relative activity (%) on substrate” value [2] was 0%.

CSCC[C@H](N)C(=O)O [L-methionine] was tested, and the “Relative activity (%) on substrate” value [1] was 0% and the “Relative activity (%) on substrate” value [2] was 0%.

For N[C@@H](CO)C(=O)O [L-serine], the “Relative activity (%) on substrate” value [1] was 0% and the “Relative activity (%) on substrate” value [2] was 0%.

CCN [ethylamine] was tested, and the “Relative activity (%) on substrate” value [1] was 0% and the “Relative activity (%) on substrate” value [2] was 0%.

For CN [methylamine], the “Relative activity (%) on substrate” value [1] was 0% and the “Relative activity (%) on substrate” value [2] was 0%.

For [Cl-].[Cl-].[Zn+2] [ZnCl2], the “Relative activity (%)” value [3] was 110.7% and the “Relative activity (%)” value [4] was 106.1%.

With CCCN [propylamine] the “Relative activity (%) on substrate” value [1] was 0% and the “Relative activity (%) on substrate” value [2] was 0%.

With N[C@@H](Cc1ccc(O)cc1)C(=O)O [L-tyrosine] the “Relative activity (%) on substrate” value [1] was 0% and the “Relative activity (%) on substrate” value [2] was 0%.

In the case of NCc1ccccc1 [benzylamine], the “Relative activity (%) on substrate” value [1] was 0% and the “Relative activity (%) on substrate” value [2] was 0%.

In the case of C[C@@H](O)[C@H](N)C(=O)O [L-threonine], the “Relative activity (%) on substrate” value [1] was 0% and the “Relative activity (%) on substrate” value [2] was 0%.

In the case of Cc1cc2nc3c(=O)[nH]c(=O)nc-3n(C[C@H](O)[C@H](O)[C@H](O)COP(=O)(O)OP(=O)(O)OC[C@H]3O[C@@H](n4cnc5c(N)ncnc54)[C@H](O)[C@@H]3O)c2cc1C [FAD], the “Relative activity (%)” value ([5]; A7700, additive 0.01 mM) was 100.7%, the “Effect of additive” value ([5]; A7700 enzyme) was “not affected” and the “Relative activity (%)” value ([6]; A8063, additive 0.01 mM) was 100.7%. The “Effect of additive” value ([6]; A8063 enzyme) was “not affected”.

In the case of [Cl][Ni][Cl] [NiCl2], the “Relative activity (%)” value [3] was 102.3% and the “Relative activity (%)” value [4] was 101.8%.

For [Ba+2].[Cl-].[Cl-] [BaCl2], the “Relative activity (%)” value [3] was 103.7% and the “Relative activity (%)” value [4] was 102.5%.

O=C(O)c1cc[c]([Hg][Cl])cc1 [PCMB] was tested, and the “Relative activity (%)” value ([5]; A7700, additive 0.002%) was 107.6% and the “Relative activity (%)” value ([6]; A8063, additive 0.002%) was 98.2%.
